The target in one experiment is T1, CB1 receptor (Rattus norvegicus, UniProt P20272).
T1 construct: the cerebellum was dissected away from the rest of the brain, weighed and homogenised; from tissue; host or cells: Sprague Dawley rat cerebellum membranes
The experiment is described as follows: Radioligand binding assay, rat cerebellum membranes. On the procedure: The affinity of compounds at cannabinoid receptors is routinely assessed using ligand binding assays known to those skilled in the art. Radioligand binding assays were conducted using rat cerebellum or rat spleen. The cerebellum of the rat is known to express predominantly, if not exclusively, the CB1 receptor subtype (20,21). Thus, binding constants obtained from these studies are characterised by a single affinity value, as only one receptor type is labelled. […] In contrast, biphasic binding curves in the spleen characterised by two affinity constants represent the profile of compounds showing selectivity for one receptor subtype over another. In order to determine the order of selectivity, the high and low affinity values obtained for these compounds in the spleen binding assays were compared to the single affinity estimates obtained for the cerebellum (CB1) assays.
Sprague Dawley rats of either sex (200-300 g) were killed by gassing with 80% CO2 in O2 and decapitation, and the entire brain excised rapidly and placed in ice-cold Tris-HCl buffer (Tris 50 mM, MgCl2 3 mM, EGTA 0.2 mM, pH to 7.4 with HCl). On ice, the cerebellum was dissected away from the rest of the brain, weighed and homogenised (PT-DA 1205/2EC Polytron Aggregate; Kinematica, Luzernerstrasse Switzland) in 10 volumes of ice-cold Tris-HCl buffer. The homogenate was then made up to 20 volumes and centrifuged (Model J2-M1, Beckman, Fullerton, Calif., U.S.A.) at […] for 15 min at 4° C.). Subsequently, the supernatant was discarded, the pellet resuspended in 20 volumes of buffer and centrifuged as before. The resulting pellet was then resuspended in 20 volumes of buffer and assayed for protein content using the method of Bradford (Bradford, 1976) in a Novaspec II spectrophotometer (Pharmacia Biotech; with bovine serum albumin (BSA; Hömosafe BSA, c/o ‘ScimaR’ Templestowe, Australia) as the standard. The homogenate was then recentrifuged and the final pellet resuspended in Tris-HCl buffer at a protein concentration of 5 mg/ml and stored in 500 μl aliquots at −80° C. until used in the binding assay.
Ligand binding assays were performed in polypropylene tubes in a total volume of 1 ml containing Tris-HCl buffer, a final concentration of 1 mg/ml BSA, and varying concentrations of drugs. Tubes contained 30 μg of membrane protein and incubation was started by the addition of 100 μl of either 0.5 nM [^3H]SR141716A or 0.2 nM [^3H]WIN 55,212-2. Experiments were carried out in triplicate at 30° C. for 90 min with non-specific binding being defined as radioligand binding in the presence of 1 μM unlabelled WIN 55,212-2. Incubations were terminated by rapid filtration with a M-24 Cell Harvester (Brandel; Gaithersburg, Md., U.S.A.) using ice-cold Tris-HCl buffer containing 0.5 mg/ml BSA. Filters (Wattman GF/B) were soaked for 2 h prior to filtering in a solution of Tris-HCl buffer containing 3 mg/ml BSA and 0.5% w/w polyethyleneimine (PEI). Filters were left to dry thoroughly before placement into scintillation vials with 5 ml of scintillation cocktail (Ultima Gold LSC-cocktail; Packard Bioscience, Meriden, Conn., U.S.A.) being added. Vials were left to stand overnight before the radioactivity was determined using a Model 1409 DSA Liquid Scintillation counter (EG&E Wallac, Gaithersburg, Md., U.S.A.).
The resulting radioligand binding curves were analyzed by nonlinear regression using the program PRISM 3.0 (GraphPad Software, San Diego, Calif.) in order to derive ligand affinity estimates for the cannabinoid receptor(s).

Another experiment relates to Sprague-Dawley rats. The experiment is described as follows: Antinociceptive testing (tail flick / plantar test) after intrathecal or intravenous administration. It is filed as in vivo. Conditions: rat. On the procedure:
The following sequence protocol was used for the acute intrathecal administration to Sprague-Dawley rats. Each rat only underwent one cycle of the sequence protocol:
Intrathecal catheter placement was carried out as first described by Yaksh and Rudy (1976) The general thrust of the catheter placement involves the PE-10 catheter inserted into the subarachnoid space via the antlanto-occipital membrane (as the entry point) and threaded down to the lumber expansion of the spinal cord (spinal cord level L5/L6). The catheter tip is then exteriorised over the forehead. All animals are, assessed for normal motor function and behaviour post-surgery. […]
Drugs were administered in a 0.1 ml volume followed by 0.1 ml saline (0.9% sodium chloride solution; Baxter, Toongabbie, N.S.W., Australia) flush. Tail flick nociception was measured at 15, 30, and in the case of 0.1 mg/kg CP 55,940, 45 min after intravenous administration.
The antinociception tests were all conducted using the Plantar Test Instrument (Ugo Basile, Varese, Italy) which comprises a movable infra-red (IR) heat source, a glass pane onto which the 3-compartment rat enclosure is placed and a controller. […] The withdrawal latency is measured by the time difference between the activation of the IR heat source and physical withdrawal of the paw or tail from the stimulus. […]

The structures appear in SMILES notation.

T1 sequence (P20272 whole entry): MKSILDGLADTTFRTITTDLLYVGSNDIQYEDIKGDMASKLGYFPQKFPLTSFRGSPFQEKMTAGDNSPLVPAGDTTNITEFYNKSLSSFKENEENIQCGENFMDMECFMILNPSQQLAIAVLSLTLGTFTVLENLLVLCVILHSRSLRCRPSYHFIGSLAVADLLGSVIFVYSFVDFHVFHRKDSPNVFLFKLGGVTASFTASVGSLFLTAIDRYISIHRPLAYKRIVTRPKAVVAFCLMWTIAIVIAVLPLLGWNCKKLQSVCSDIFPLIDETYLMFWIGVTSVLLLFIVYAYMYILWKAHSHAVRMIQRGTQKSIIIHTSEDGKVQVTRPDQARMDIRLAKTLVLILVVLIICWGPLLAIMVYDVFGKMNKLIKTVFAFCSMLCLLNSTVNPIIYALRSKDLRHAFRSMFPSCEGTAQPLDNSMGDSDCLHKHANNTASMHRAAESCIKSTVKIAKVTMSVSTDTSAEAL

In general, IC50 refers to the concentration that inhibits the measured activity by half. For the compound `c1ccc(Cc2noc(-c3cn(CCN4CCCC4)c4ccccc34)n2)cc1` [Compound 1, 3-(3-Benzyl-[1,2,4]-oxadiazol-5-yl)-1-[2-(pyrrolidin-1-yl)ethyl]-1H-indole], the IC50 on CB1 receptor is 50 nM. Also, the antinociceptive effect result with Sprague-Dawley rats (i.t. route) and in the experiment on Sprague-Dawley rats (i.v. route) was “provided an antinociceptive effect” in each case.

The record behind these values is US6930118B2, “3-Oxadiazol-5-yl-1-aminoalkyl-1h-indole derivatives” (Amrad Operations Pty. Ltd., priority 2001, dated 2005).
